According to US20120035356A1, “Hydroxycarboxylic Acids and Salts” (priority 2006, published 2012):
Like-named read-outs stand apart in the source and are kept apart here.

Tests used:
[1] = Water solubility; type: physicochemical; conditions: at the higher pH
[2] = Corrosion test NACE TM0169-95 modified by PNS, steel coupons in 3% NaCl solution; parameters: Percent Effectiveness: scale not given: direction of the effect not stated beside the values; conditions: Table 1; for Corrosion rate MPY: 72 h; for Percent Effectiveness: NaCl control 100%, water 0%, lower is better, 30% or less acceptable (PNS); for Corrected corrosion rate MPY^1: distilled water MPY subtracted
Method: Corrosion tests were performed according to the National Association of Corrosion Engineers (NACE) Standard TM0169-95 modified by the Pacific Northwest Snowfighters (PNS) (NACE TM0169-95).
The test procedure was modified to use 30 mL of a 3% solution of inhibitor per square inch of total coupon surface area. Stamped and numbered steel TSI coupons which met the ASTM F436 Type 1 requirement with a Rockwell hardness of C 38-45 were used for each corrosion test. Approximate coupon dimensions are 1.37 in. outer diameter, 0.60 in. inner diameter, and 0.10 in. thickness with a density of 7.85 grams per cubic centimeter. Coupons were placed in a sealed container on a rock tumbler with a non-abrasive cleanser for 30 minutes to remove surface grease and impurities. Coupons were wiped with acetone to remove any additional grease, rinsed with deionized water, and then acid etched with an 18.5% HCl solution for approximately 3 minutes. The coupons were rinsed with tap water, rinsed with deionized water, patted dry and placed in chloroform for 15 minutes. The coupons were removed from chloroform and allowed to air dry in a ventilated hood for 1 hour. Each coupon was then weighed to the nearest 0.1 mg. at least two times to ensure a consistent weight.
Distilled water was used to prepare each solution and control standard. Sodium chloride was used as the salt standard. A 3% solution of NaCl (EMD, analyzed reagent grade, 9.6 g) in distilled water (310.4 g) was prepared as a salt standard (w/v). Each test solution was prepared with 3% NaCl, 310.4 g distilled water, and a corrosion inhibitor. Two NaCl salt solutions containing each inhibitor were prepared at 3% and 1.5% inhibitor concentration (by weight of salt, 288 mg and 144 mg, respectively). Approximately 300 mL of each solution in distilled water was transferred to a clean 500 mL Erlenmeyer flask equipped with a rubber stopper which had been drilled to allow a thin line attached to a plastic rod to run through it. The pH of each solution was measured and recorded. Aqueous 5% sodium hydroxide was carefully added (1-2 drops) until a basic pH was established for each test solution. The pH of the NaCl and H2O control solutions was not altered. Three coupons were attached to a plastic bar suspended within each flask through the stopper hole. A timed device raised and lowered the test coupons so they were immersed in the test solution for 10 minutes of each hour for a 72 hour period. Tests were conducted at room temperature.
After the 72 h. test period, the coupons were quickly removed from solution, rinsed under tap water and vigorously rubbed to remove any surface corrosion material. The coupons were then placed in shallow evaporating dishes containing a cleaning solution of concentrated hydrochloric acid, stannous chloride (50 g/liter), and antimony chloride (20 g/liter) for 15 minutes. The coupons were removed from the acid solution, rinsed vigorously under tap water, and returned to the cleaning solution for an additional 15 minutes. The coupons were again removed from the acid solution, rinsed under tap water, rinsed under deionized water, patted dry, and placed in a vessel containing chloroform for 10 minutes. The coupons were removed from the chloroform and allowed to air dry under a ventilated hood for 1 hour before being weighed to the nearest 0.1 mg. Each coupon was weighed twice to ensure a true final weight. Corrosion rate in mils per year (MPY) was calculated from the measured weight loss of each coupon using the following equation: […]
The corrosion value for the control solution of distilled H2O was also calculated. The MPY value of the distilled water was subtracted from the MPY value of each sample solution containing 3% NaCl to provide a corrected MPY value, which is noted as MPY′.

[3] = cited from earlier work
[4] = 1.5 weight % inhibitor in 3% NaCl, room temperature, >pH 8 except sodium D-gluconate (pH 6.1)
[5] = 1.5 weight % inhibitor in 3% NaCl
[6] = 3.0 weight % inhibitor in 3% NaCl, >pH 8 except sodium D-gluconate (pH 6.1) and commercial liquid gluconate product (pH 3.2)
[7] = 3.0 weight % inhibitor in 3% NaCl

Row | Structure (SMILES) | water solubility [1] | Corrosion rate MPY [2, 4] [MPY] | Percent Effectiveness [2, 5] [%] | Corrected corrosion rate MPY^1 [2, 5] [MPY] | Corrosion rate MPY [2, 6] [MPY] | Percent Effectiveness [2, 7] [%] | Corrected corrosion rate MPY^1 [2, 7] [MPY] | water solubility (in words) [3] | also measured
1 | O=C([O-])[C@@H](O)[C@@H](O)[C@H](O)[C@@H](O)C(=O)[O-].[K+].[Na+] [sodium potassium D-glucarate] | ca. 70% | 23.726 | 35.28 | 19.443 | 20.939 | 29.84 | 16.656 | readily soluble in water | Percent Effectiveness ([2]; 3.0 weight % inhibitor in 3% NaCl, listed as glucarate): ~30%
2 | O=C([O-])[C@@H](O)[C@@H](O)[C@H](O)[C@@H](O)C(=O)[O-].[Ca+2] [calcium D-glucarate] |  |  |  |  |  |  |  | very insoluble in water | 
3 | O=C(O)[C@@H](O)[C@@H](O)[C@H](O)[C@@H](O)C(=O)[O-].[K+] [Sample III, monopotassium D-glucarate] |  |  |  |  |  |  |  |  | Water reduction (% of control) (Type A (water reducing) trial, admixture dose 2.4-2.5 oz/cwt): 5.04 % of control; Compressive Strength (% of control) (Type A trial, 7 days): (125%) % of control; Water reduction (% of control) (Type D (water reducing/set retarding) trial, admixture dose 2.9-5.0 oz/cwt): 5.04 % of control; Compressive Strength (% of control) (Type D trial, 7 days): (117%) % of control; Compressive Strength (% of control) (Type D trial, 28 days): (118%) % of control; water solubility [3]: about 10%
4 | O=C([O-])[C@@H](O)[C@@H](O)[C@H](O)[C@@H](O)C(=O)[O-].[K+].[K+] [dipotassium D-glucarate hydrate, dipotassium D-glucarate] |  |  |  |  |  |  |  | readily soluble in water | 
5 | O=C([O-])[C@H](O)[C@@H](O)[C@H](O)[C@H](O)CO.[Na+] [sodium D-gluconate, reference compound] | ca. 60% | 24.596 | 36.98 | 20.313 | 22.786 | 33.45 | 18.503 |  | Percent Effectiveness ([2]; 3.0 weight % inhibitor in 3% NaCl, listed as gluconate): > 30%
